According to patent publication US20230312550A1, “N-(2-(4-CYANOTHIAZOLIDIN-3-YL)-2-OXOETHYL)-QUINOLINE-4-CARBOXAMIDES” (AstraZeneca AB, priority 2020, published 2023):

What was measured:
[1] = target: Prolyl endopeptidase, Prolyl Oligopeptidase (hPREP) (Homo sapiens (Human), UniProt P48147); test: hPrep inhibition assay; type: biochemical; details: hPREP 0.6 nM, Z-Gly-Pro-amino-methylcoumarin 50 μM; read-out: PREP IC50
Experimental: Compounds were tested in a biochemical inhibition assay using Prolyl endopeptidase, Prolyl Oligopeptidase (hPREP) enzyme at 0.6 nM FAC (R&D Systems, 4308-SE) and the substrate Z-Gly-Pro-amino-methylcoumarin (Bachem, I-1145) at 50 μM FAC. 384 Low volume black plates (Greiner #784076) were used. […] Plates were incubated for 15 min at rt in dark. 4 μL, 100 μM substrate solution (25 mM Tris HCl, 250 mM NaCl, 0.01% Triton X-100, 5 mM Glutathione, pH 7.5) was added to each well. Plates were centrifuged at 1000 rpm and incubated for 20 min at rt in dark. The plates were read on a PHERAstar® reader with excitation 340 nm and emission 460 nm. Data were analyzed in Genedata Screener®. IC50 values were determined by plotting % inhibition versus log compound concentration and using a one site dose response model.

hFAP (M39-A757) = hFAP (M39-A757) (Homo sapiens (Human), UniProt Q12884); test: hFAP binding assay (surface plasmon resonance); details: SPR, 20° C., single cycle kinetics
hFAP (M39-A757), sequence (Q12884 39-757): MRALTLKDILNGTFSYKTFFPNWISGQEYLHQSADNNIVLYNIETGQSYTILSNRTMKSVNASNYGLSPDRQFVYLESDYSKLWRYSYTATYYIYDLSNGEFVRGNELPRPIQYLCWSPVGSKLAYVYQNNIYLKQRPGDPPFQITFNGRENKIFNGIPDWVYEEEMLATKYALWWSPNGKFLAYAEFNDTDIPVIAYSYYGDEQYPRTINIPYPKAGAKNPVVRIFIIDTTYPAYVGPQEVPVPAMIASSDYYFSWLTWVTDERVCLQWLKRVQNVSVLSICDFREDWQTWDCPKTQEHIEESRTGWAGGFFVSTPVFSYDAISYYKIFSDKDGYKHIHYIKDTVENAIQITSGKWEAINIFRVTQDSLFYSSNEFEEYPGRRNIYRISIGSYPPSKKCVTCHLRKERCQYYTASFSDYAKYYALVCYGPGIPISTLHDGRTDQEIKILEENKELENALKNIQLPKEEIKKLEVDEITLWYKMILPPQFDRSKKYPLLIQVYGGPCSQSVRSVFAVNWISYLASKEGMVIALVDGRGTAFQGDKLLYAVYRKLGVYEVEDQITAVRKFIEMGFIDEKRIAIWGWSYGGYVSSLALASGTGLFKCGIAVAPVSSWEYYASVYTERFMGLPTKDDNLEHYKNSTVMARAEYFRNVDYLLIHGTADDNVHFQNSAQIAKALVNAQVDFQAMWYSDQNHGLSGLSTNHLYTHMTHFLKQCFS

Prolyl endopeptidase, Prolyl Oligopeptidase (hPREP), sequence (P48147 whole entry): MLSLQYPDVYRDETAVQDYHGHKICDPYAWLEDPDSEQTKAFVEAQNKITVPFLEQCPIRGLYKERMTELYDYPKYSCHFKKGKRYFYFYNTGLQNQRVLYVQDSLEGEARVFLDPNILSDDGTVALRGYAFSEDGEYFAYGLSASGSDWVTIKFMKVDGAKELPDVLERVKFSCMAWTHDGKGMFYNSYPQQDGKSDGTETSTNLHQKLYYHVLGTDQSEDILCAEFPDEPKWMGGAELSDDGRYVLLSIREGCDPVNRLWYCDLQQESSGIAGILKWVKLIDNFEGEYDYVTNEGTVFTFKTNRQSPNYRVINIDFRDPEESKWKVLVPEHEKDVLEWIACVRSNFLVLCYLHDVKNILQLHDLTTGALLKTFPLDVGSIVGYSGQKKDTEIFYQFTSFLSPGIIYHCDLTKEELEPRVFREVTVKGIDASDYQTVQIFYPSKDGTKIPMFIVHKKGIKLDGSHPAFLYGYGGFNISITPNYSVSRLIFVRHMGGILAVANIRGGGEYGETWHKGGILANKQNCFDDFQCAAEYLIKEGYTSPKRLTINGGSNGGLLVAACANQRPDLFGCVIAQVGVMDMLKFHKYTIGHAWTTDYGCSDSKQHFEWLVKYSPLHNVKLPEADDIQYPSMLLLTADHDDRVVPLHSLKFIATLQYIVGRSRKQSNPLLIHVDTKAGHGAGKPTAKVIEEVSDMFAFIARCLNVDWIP

| SMILES | IC50 [1] [nM] | hFAP Binding assay k(off) (hFAP (M39-A757)) [s⁻¹] | hFAP Binding assay k(on) (hFAP (M39-A757)) [M⁻¹ s⁻¹] |
| --- | --- | --- | --- |
| Cc1ccc2c(C(=O)NCC(=O)N3CSC[C@H]3C#N)ccnc2c1 [B, (R)—N-(2-(4-cyanothiazolidin-3-yl)-2-oxoethyl)-7-methylquinoline-4-carboxamide, reference compound] | 5.2 |  |  |
| Cn1cc(-c2ccc3nccc(C(=O)NCC(=O)N4CSC[C@H]4C#N)c3c2)cn1 [Example 129, (R)—N-(2-(4-Cyanothiazolidin-3-yl)-2-oxoethyl)-6-(1-methyl-1H-pyrazol-4-yl)quinoline-4-carboxamide] | 330 | 0.00012 | 1400000 |
| N#C[C@@H]1CSCN1C(=O)CNC(=O)c1ccnc2ccc(N3CC[C@@H](CO)C3)cc12 [Example 220, N-(2-((R)-4-Cyanothiazolidin-3-yl)-2-oxoethyl)-6-((R)-3-(hydroxymethyl)-pyrrolidin-1-yl)quinoline-4-carboxamide] | 390 | 0.000050 | 1600000 |
| C[C@@H]1CN(c2ccc3nccc(C(=O)NCC(=O)N4CSC[C@H]4C#N)c3c2)[C@H](C)CO1 [Example 87, N-(2-((R)-4-Cyanothiazolidin-3-yl)-2-oxoethyl)-6-((2R,5R)-2,5-dimethyl-morpholino)quinoline-4-carboxamide] | 760 | 0.00011 | 2800000 |
| CC1(C)COCCN1c1ccc2nccc(C(=O)NCC(=O)N3CSC[C@H]3C#N)c2c1 [Example 107, (R)—N-(2-(4-Cyanothiazolidin-3-yl)-2-oxoethyl)-6-(3,3-dimethyl-morpholino)quinoline-4-carboxamide] | 1100 | 0.00016 | 1900000 |
| CCOC1(C)CN(c2ccc3nccc(C(=O)NCC(=O)N4CSC[C@H]4C#N)c3c2)C1 [Example 152, (R)—N-(2-(4-Cyanothiazolidin-3-yl)-2-oxoethyl)-6-(3-ethoxy-3-methyl-azetidin-1-yl)quinoline-4-carboxamide] | 690 | 0.000014 | 1000000 |
| CC1(C)CN(c2ccc3nccc(C(=O)NCC(=O)N4CSC[C@H]4C#N)c3c2)C1 [Example 22, (R)—N-(2-(4-Cyanothiazolidin-3-yl)-2-oxoethyl)-6-(3,3-dimethylazetidin-1-yl)quinoline-4-carboxamide] | 470 | 0.000047 | 940000 |
| C[C@@H]1[C@@H](C)OCCN1c1ccc2nccc(C(=O)NCC(=O)N3CSC[C@H]3C#N)c2c1 [Example 83, N-(2-((R)-4-Cyanothiazolidin-3-yl)-2-oxoethyl)-6-((2R,3R)-2,3-dimethyl-morpholino)quinoline-4-carboxamide] | 640 | 0.000064 | 1700000 |
| COC[C@H]1COCCN1c1ccc2nccc(C(=O)NCC(=O)N3CSC[C@H]3C#N)c2c1 [Example 89, N-(2-((R)-4-Cyanothiazolidin-3-yl)-2-oxoethyl)-6-((S)-3-(methoxymethyl)-morpholino)quinoline-4-carboxamide] | 1300 | 0.00015 | 3600000 |
| C[C@H]1COCCN1c1ccc2nccc(C(=O)NCC(=O)N3CSC[C@H]3C#N)c2c1 [Example 102, N-(2-((R)-4-Cyanothiazolidin-3-yl)-2-oxoethyl)-6-((S)-3-methyl-morpholino)quinoline-4-carboxamide] | 680 | 0.000080 | 2000000 |
| N#C[C@@H]1CSCN1C(=O)CNC(=O)c1ccnc2ccc(N3CC[C@H](CO)C3)cc12 [Example 221, N-(2-((R)-4-Cyanothiazolidin-3-yl)-2-oxoethyl)-6-((S)-3-(hydroxymethyl)-pyrrolidin-1-yl)quinoline-4-carboxamide] | 410 | 0.000046 | 8500000 |
| N#C[C@@H]1CSCN1C(=O)CNC(=O)c1ccnc2ccc(N3CC4(CCO4)C3)cc12 [Example 153, (R)—N-(2-(4-Cyanothiazolidin-3-yl)-2-oxoethyl)-6-(1-oxa-6-azaspiro[3.3]heptan-6-yl)quinoline-4-carboxamide] | 540 | 0.000085 | 5300000 |
| CC(=O)NCC1(C)CN(c2ccc3nccc(C(=O)NCC(=O)N4CSC[C@H]4C#N)c3c2)C1 [Example 181, (R)-6-(3-(Acetamidomethyl)-3-methylazetidin-1-yl)-N-(2-(4-cyano-thiazolidin-3-yl)-2-oxoethyl)quinoline-4-carboxamide] | 1600 | 0.000027 | 180000 |
| C[C@H]1OCCN(c2ccc3nccc(C(=O)NCC(=O)N4CSC[C@H]4C#N)c3c2)[C@H]1C [Example 81, N-(2-((R)-4-Cyanothiazolidin-3-yl)-2-oxoethyl)-6-((2R,3S)-2,3-dimethyl-morpholino)quinoline-4-carboxamide] | 1700 | 0.000063 | 1400000 |
| C[C@@H]1COCCN1c1ccc2nccc(C(=O)NCC(=O)N3CSC[C@H]3C#N)c2c1 [Example 108, N-(2-((R)-4-Cyanothiazolidin-3-yl)-2-oxoethyl)-6-((R)-3-methyl-morpholino)quinoline-4-carboxamide] | 1000 | 0.000050 | 1400000 |
| C[C@H]1CN(c2ccc3nccc(C(=O)NCC(=O)N4CSC[C@H]4C#N)c3c2)C[C@H](C)O1 [Example 78, N-(2-((R)-4-Cyanothiazolidin-3-yl)-2-oxoethyl)-6-((2S,6S)-2,6-dimethyl-morpholino)quinoline-4-carboxamide] | 890 | 0.00010 | 880000 |
| N#C[C@@H]1CSCN1C(=O)CNC(=O)c1ccnc2ccc(N3CCCC3=O)cc12 [Example 11, (R)—N-(2-(4-Cyanothiazolidin-3-yl)-2-oxoethyl)-6-(2-oxopyrrolidin-1-yl)-quinoline-4-carboxamide] | 140 |  |  |
| N#C[C@@H]1CSCN1C(=O)CNC(=O)c1ccnc2ccc(N3CCC(F)(F)C3)cc12 [Example 47, (R)—N-(2-(4-Cyanothiazolidin-3-yl)-2-oxoethyl)-6-(3,3-difluoropyrrolidin-1-yl)quinoline-4-carboxamide] | 270 | 0.00016 | 5600000 |
| Cc1cc(C(=O)NCC(=O)N2CSC[C@H]2C#N)c2cc(N3CCOCC3)ccc2n1 [Example 109, (R)—N-(2-(4-Cyanothiazolidin-3-yl)-2-oxoethyl)-2-methyl-6-morpholino-quinoline-4-carboxamide] |  | 0.0099 | 1200000 |
| CCC1(F)CN(c2ccc3nccc(C(=O)NCC(=O)N4CSC[C@H]4C#N)c3c2)C1 [Example 138, (R)—N-(2-(4-Cyanothiazolidin-3-yl)-2-oxoethyl)-6-(3-ethyl-3-fluoro-azetidin-1-yl)quinoline-4-carboxamide] | 470 | 0.000075 | 2500000 |
